In paper PMC11722014, “FXR Activation Accelerates Early Phase of Osteoblast Differentiation Through COX-2-PGE2-EP4 Axis in BMP-2-Induced Mouse Mesenchymal Stem Cells” (Molecules, 2024):

Target: T1, Farnesoid X receptor (FXR) (Homo sapiens, UniProt Q96RI1)
T1 construct: gene NR1H4; FXR-LBD-Glutathione S-transferase fusion protein
T1 sequence (Q96RI1 262-486 limits assumed): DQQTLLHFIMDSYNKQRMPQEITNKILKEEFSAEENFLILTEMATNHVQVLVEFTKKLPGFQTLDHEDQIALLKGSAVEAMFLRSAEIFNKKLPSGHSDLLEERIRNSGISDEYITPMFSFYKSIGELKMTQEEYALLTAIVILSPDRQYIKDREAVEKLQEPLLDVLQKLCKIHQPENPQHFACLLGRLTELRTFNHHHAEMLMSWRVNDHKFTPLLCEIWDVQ
Experiment: LanthaScreen TR-FRET FXR coactivator recruitment assay (partial agonist, […] of GW4064); also luciferase reporter assay
Type: binding

CC(C)(C)c1ccc(-n2c(C3CC3)nc3c(NC(=O)c4ccc(C(=O)O)cc4)cccc32)cc1 [FLG390]
EC50: 630 ± 260 nM
